Laboratory results taken from US12708791B2, “Management of dermal neurofibromatosis lesions” (Sun Pharmaceutical Industries, Inc., priority 2020, dated 2026).
Values joined by “and” are separate entries in the source; they are usually repeats but may differ in a detail not shown here. Identical values can stand only once.

Assays:
Assay type in all cases: in vivo, human
[1] = system: neurofibroma lesions; experiment: Lesion size and growth rate after PDT treatment
Description: (§1) (day 2), and 2 to 4 (day 14-28) weeks after light treatment, for evaluation of cutaneous adverse events. At day 2, tumors were biopsied using a punch technique and subjected to light microscopy exam, TUNEL assay (DeadEnd™ Colorimetric TUNEL System, Promega, Madison, WI), and DAPI (4′,6-diamidino-2-phenylindole) staining (ab228549, Abcam, Cambridge, MA). Additional follow-up visits for measurement of lesions were made at periods of 3 months up to one year. See FIG. 1 for a schematic of the study design. The primary outcome for this clinical study was MTD, as measured in the dose escalation using the DLT as defined above. A secondary outcome measured efficacy defined by change in lesion size. The area of the lesion was estimated at baseline and during follow-up visits by measuring the long and short axis of the lesion. Average growth rates were calculated and comparisons made between ALA-treated and placebo lesions within the same subject. The null hypothesis was that there would be no difference in the growth rates of ALA-treated lesions when paired with same-subject placebo lesions. The alternative hypothesis was there would be a difference in the ALA and placebo lesion growth rates.

[2] = system: neurofibromas; experiment: TUNEL assay for apoptotic cell death in tumors biopsied at day 2; details: all TUNEL evaluated tumor samples, five subjects; p=0.002 vs vehicle
Description: as §1

[3] = system: superficial dermal neurofibromas; experiment: Photosensitizer uptake and conversion: PpIX fluorescence in excised tumors by confocal microscopy
Description: Four adult subjects were enrolled (2 males, 2 females) in part 1. Three tumor groups for each subject consisted of untreated negative controls, tumors treated with drug vehicle only, and ALA (Levulan® Kerastick® Topical Solution, Sun Pharma, Wilmington, MA, USA) treated tumors. Treated tumors were incubated with ALA or vehicle three hours (2 subjects) or overnight (2 subjects), then excised and subjected to fluorescence microscopy studies to measure mean fluorescence indicating PpIX conversion in tumors. Four adult subjects (2 males, 2 females) participated in part 1. Ages ranged from 39 to 67 yrs.
Photosensitizer Uptake: Treated tumors were incubated with ALA or vehicle three hours (2 subjects) or overnight (2 subjects), then excised and subjected to fluorescence microscopy studies to measure mean fluorescence indicating PpIX conversion in tumors. Importantly, ALA delivery for the subjects undergoing overnight incubation was assisted using microneedling (Dermapen®, Salt Lake City, Utah) of the tumors. […] The primary outcome measure was the ratio of mean fluorescence intensity in tumors compared to adjacent normal tissue, as determined by confocal microscopy. PpIX signals were detected with excitation at 405 nm and emission with a 600 nm long pass filter.

[4] = system: neurofibroma lesions
Description: Nine adult subjects participated in part 2, four male and five female. Ages ranged from 39 to 69, with a median of 58. For each subject neurofibromalesions were selected for treatment with ALA (3-6 lesions) and vehicle (3-6 lesions) delivered with microneedling. Following an overnight (16-18 hrs.) incubation time, all treated neurofibromas were illuminated with red light at 633 nm and 105 mW/cm^2 (Omnilux Revive® LED illuminator, Photo Therapeutics, Montgomeryville, PA, USA). The dose escalation study included doses of 50, 100 or 200 J/cm^2. Each subject received one single treatment.
Study Design: This study followed a 3+3 Phase I trial design, subjects were treated starting at a dose level of 50 J/cm^2. Dose escalation was performed only after a minimum of three subjects had been evaluated at the current level. If dose-limiting toxicity (DLT) occurred in 1 of 3 subjects, 3 more subjects would be evaluated at that dose level. DLT was defined as pain during irradiation requiring cessation of the light treatment, or any serious cutaneous adverse events, such as erosions or blistering or crusting of the skin. If 0 of these 3 subjects experienced DLT, then the dose was escalated (only one DLT in six subjects). If DLT occurred in 1 of the additional 3 subjects, the […] tolerable dose (MTD) had been exceeded (two DLTs in six subjects) and 3 more subjects would be treated at the next lower dose (if only 3 subjects had been treated previously at that dose). […] The MTD is defined as that dose level immediately below the dose level at which 2 subjects of a cohort (three or six subjects) experience DLT.
as §1

[5] = system: neurofibromas; experiment: Light microscopy exam (hematoxylin & eosin) of tumors biopsied at day 2; details: ALA-treated tumors, day 2 after PDT
Description: as §1

Structure (SMILES): NCC(=O)CCC(=O)O [ALA, 5-aminolevulinic acid]
- Tumor size change ([1]; measured at 2, 4 and 12 weeks after treatment, five subjects): did not show significant change
- Growth rate ALA ([1]; post PDT treatment, individual subjects): −0.073 (0.063) mm^2/day and 0.028 (0.040) mm^2/day and 0.097 (0.103) mm^2/day and 0.375 (00157) mm^2/day and −0.024 (0.030) mm^2/day
- Difference in growth rates (ALA vs placebo) ([1]; post PDT treatment, individual subjects, same-subject placebo lesions): 0.034 mm^2/day and −0.239 mm^2/day and 0.097 mm^2/day and −0.440 mm^2/day and −0.110 mm^2/day
- Average number of apoptotic cells per visual field [2]: 42.5±19.9
- Fluorescence compared to adjacent normal tissue ([3]; microneedled, overnight incubation): significant fluorescence
- Fluorescence in the apparent tumor zones ([3]; topical ALA, incubated 3 hrs., excised tumors from two subjects): no fluorescence
- Duration of post inflammatory hyperpigmentation ([4]; ALA-PDT treated NF lesions): up to 3 months
- Time by which edema and redness subsided ([4]; ALA-PDT treated NF lesions): ≤ 2 days
- Blister formation, erosion or crusting ([4]; human, in vivo): no blister formation, erosion or crusting
- Erythema and edema around lesions ([4]; human, in vivo): marked erythema and edema
- MTD (light dose) ([4]; human, in vivo): 100 J/cm^2
- Pain and discomfort induced by red light treatment ([4]; human, in vivo): marked pain and discomfort
- Subjects with DLT (pain requiring cessation of the light treatment) ([4]; human, in vivo): One subject
- Duration of erythema and edema ([4]; red light 105 mW/cm^2, 50 or 100 J/cm^2): at least 48 hrs.
- Infiltrate on light microscopy [5]: mixed infiltrate consisting of lymphocytes, neutrophils, and rare eosinophils
